Assay [1] has as its target T1, MPO (Homo sapiens, UniProt P05164).
T1 construct: made in house
T1 sequence (P05164 49-745): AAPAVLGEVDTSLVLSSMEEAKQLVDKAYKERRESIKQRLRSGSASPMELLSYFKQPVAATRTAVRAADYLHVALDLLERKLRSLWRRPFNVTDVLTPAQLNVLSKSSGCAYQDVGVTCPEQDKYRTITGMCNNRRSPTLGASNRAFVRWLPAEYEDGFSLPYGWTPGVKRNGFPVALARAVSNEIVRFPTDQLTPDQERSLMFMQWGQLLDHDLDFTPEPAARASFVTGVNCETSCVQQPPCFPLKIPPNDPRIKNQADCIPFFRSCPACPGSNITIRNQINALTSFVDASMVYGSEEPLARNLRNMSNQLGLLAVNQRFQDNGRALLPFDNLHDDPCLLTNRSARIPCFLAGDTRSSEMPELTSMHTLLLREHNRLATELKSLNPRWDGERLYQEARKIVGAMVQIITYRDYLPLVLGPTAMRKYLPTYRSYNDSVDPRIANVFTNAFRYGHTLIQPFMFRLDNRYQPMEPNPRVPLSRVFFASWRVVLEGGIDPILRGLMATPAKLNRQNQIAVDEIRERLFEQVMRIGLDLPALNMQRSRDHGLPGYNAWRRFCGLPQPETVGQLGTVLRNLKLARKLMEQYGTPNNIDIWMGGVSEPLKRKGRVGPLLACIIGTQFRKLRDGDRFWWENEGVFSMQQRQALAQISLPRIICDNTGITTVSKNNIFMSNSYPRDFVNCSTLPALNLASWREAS
Briefly: Myeloperoxidase inhibition (MPO) assay, taurine chloramine production by the MPO/H2O2/Cl- system. Type of assay: biochemical. The note with it: for 1/IC50: inhibition capability expressed as 1/IC50. The source says: The assay was based on the production of taurine chloramine produced by the MPO/H2O2/Cl^− system in the presence of a selected inhibitor at defined concentration. The procedure for detecting the inhibition of myeloperoxidase has been described in Van Antwerpen et al. (Development and validation of a screening procedure for the assessment of inhibition using a recombinant enzyme, Talanta, 2008, 75(2), 503-510) and is incorporated herewith by reference. Briefly, the reaction mixture contained the following reagents in a final volume of 200 μl: pH 7.4 phosphate buffer (PO4^3−10 mM/NaCl 300 mM), taurine (15 mM), a compound to be tested (up to 20 μM), and the fixed amount of the recombinant MPO (6.6 μl of MPO batch solution diluted 2.5 times, 40 nM). When necessary, the volume was adjusted with water. This mixture was incubated at 37° C. and the reaction initiated with 10.0 μl of H2O2 (100 μM). After 5 minutes, the reaction was stopped by the addition of 10 μl of catalase (8 U/μl). To determine the amount of taurine chloramines produced, 50 μl of 1.35 mM solution of thionitrobenzoic acid were added and the volume adjusted to 300 μl with water. Then, the absorbance of the solutions was measured at 412 nm with a microplate reader and the curve of the absorbance as a function of the inhibitor concentration was plotted. IC50 values against myeloperoxidase enzyme were then determined using standard procedures taking into account the absence of hydrogen peroxide as 100% of inhibition and the absence of inhibitors as 0% of inhibition.

For assay [2], the target named is T1, MPO. As to the kind of experiment: Inhibition of LDL oxidation by MPO, ELISA with Mab AG9. Type of assay: biochemical. The note with it: for remaining activity at 0.05 µM / remaining activity at 0.1 µM / remaining activity at 1 µM / LDL oxidation (%): 5 min. The protocol: Recombinant MPO was prepared as previously described. Each batch solution is characterized by its protein concentration (mg/ml), its activity (U/ml), and its specific activity (U/mg). The chlorination activity was determined according to Hewson and Hager. Human plasma served for the isolation of LDL by ultracentrifugation according to Havel et al. Before oxidation, the LDL fraction (1.019<d<1.067 g/ml) was desalted by two consecutive passages through PD10 gel-filtration columns (Amersham Biosciences, The Netherlands) using PBS buffer. The different steps were carried out in the dark and the protein concentration was measured by the Lowry assay for both MPO and LDL.
The LDL oxidation was carried out at 37° C. in a final volume of 500 μl. The reaction mixture contained the following reagents at the final concentrations indicated between brackets: pH 7.2, PBS buffer, MPO (1 μg/ml), LDL (1000 μg/ml), 2 μl HCl 1N (4 mM), a compound of formula (Ia) of the present invention (50, 100 and 1000 nM), and H2O2 (100 μM). The reaction was stopped after 5 min by cooling the tubes in ice. The assay was performed as described by Moguilevsky et al. (Moguilevsky N., Zouaoui Boudjeltia Z., Babar S., Delrée P., Legssyer I., Carpentier Y., Vanhaeverbeek M., Ducobu J. Monoclonal antibodies against LDL progressively oxidized by myeloperoxidase react with ApoB-100 protein moiety and human atherosclerotic lesions. Biochem. Biophys. Res. Commun. 2004, 323, 1223-1228) in a NUNC maxisorp plate (VWR, Zaventem, Belgium): 200 ng/well of LDL was coated overnight at 4° C. in a sodium bicarbonate pH 9.8 buffer (100 μl). Afterwards, the plate was washed with TBS 80 buffer and then saturated during 1 h at 37° C. with the PBS buffer containing 1% BSA (150 μl/well). After washing the wells twice with the TBS 80 buffer, the monoclonal antibody Mab AG9 (200 ng/well) obtained according to a standard protocol and as previously described was added as a diluted solution in PBS buffer with 0.5% BSA and 0.1% of Polysorbate 20. After incubation for 1 h at 37° C., the plate was washed four times with the TBS 80 buffer and a 3000 times diluted solution of Ig G anti-mouse Alkaline Phosphatase (Promega, Leiden, The Netherlands) in the same buffer was added (100 μl/well). The wells were washed again four times and a revelation solution (150 μl/well) containing 5 mg of para-nitrophenyl phosphate in 5 ml of diethanolamine buffer was added for 30 min at room temperature. The reaction was stopped with 60 μl/well of NaOH 3 N solution. The measurement of the absorbance was performed at 405 nm with a background correction at 655 nm with a Bio-Rad photometer for a 96-well plate (Bio-Rad laboratories, CA, USA). Results were expressed as means of the percentage of LDL oxidation for six independent measurements.
Background: ELISA stands for enzyme-linked immunosorbent assay.

Setting [3] is: recombinant MPO 40 nM, pH 7.4 phosphate buffer, 37° C., H2O2 100 μM, 5 minutes.
The mark [4] stands for this setting: value given in nM in the text on FIG. 2.
Setting [5] is: pH 7.2, compound 50 nM, MPO 1 μg/ml, LDL 1000 μg/ml, pH 7.2, 37° C., mean of six measurements, read-out: LDL oxidation (%).
The mark [6] stands for this setting: pH 7.2, compound 100 nM, MPO 1 μg/ml, LDL 1000 μg/ml, pH 7.2, 37° C., mean of six measurements, read-out: LDL oxidation (%).
The mark [7] stands for this setting: pH 7.2, compound 1000 nM, MPO 1 μg/ml, LDL 1000 μg/ml, pH 7.2, 37° C., mean of six measurements, read-out: LDL oxidation (%).
Where [8] appears, read: pH 7.2, read-out: LDL oxidation (%).
[9] abbreviates: compound 50 nM, MPO 1 μg/ml, LDL 1000 μg/ml, pH 7.2, 37° C., mean of six measurements.
The mark [10] stands for this setting: compound 100 nM, MPO 1 μg/ml, LDL 1000 μg/ml, pH 7.2, 37° C., mean of six measurements.
Where [11] appears, read: compound 1000 nM, MPO 1 μg/ml, LDL 1000 μg/ml, pH 7.2, 37° C., mean of six measurements.

Counter-ions that a name gives are not always drawn. Like-named read-outs stand apart in the source and are kept apart here.

As usually defined, the IC50 is the concentration that inhibits the measured activity by half.

In turn, `NCCCCCc1c[nH]c2ccc(F)cc12` [Compound K, 3-(5-Aminopentyl)-5-fluoro-[1H]-indole oxalate] came in with a 1/IC50 in assay [1] of 122 ± 15 µM⁻¹. Also, the results for the concentration for half-maximal inhibition (IC50) in assay [1] (setting [3]) and in assay [1] (setting [4]) were 8 nM and 8 ± 1 nM, respectively. Moreover, the remaining activity at 0.05 µM in assay [2] (setting [5]) turned out to be 29.5%. The remaining activity at 0.1 µM in assay [2] (setting [6]) is 23.4%. Moreover, in assay [2] (setting [7]), the remaining activity at 1 µM is 3.2%. The “inhibition of LDL oxidation (in words)” value in assay [2] (at low concentration) was “powerful performance”.
For the compound `Fc1ccc2[nH]cc(CCN3CCCC3)c2c1` [Compound E, 5-Fluoro-3-[2-(1-pyrrolidinyl)ethyl]-[1H]-indole], the 1/IC50 in assay [1] came out at 32 ± 19 µM⁻¹. For the same compound, the IC50 in assay [1] (setting [3]) is 40 ± 30 nM. Besides, in assay [2] (setting [8]), the remaining activity at 0.05 µM amounted to 49.2%, the remaining activity at 0.1 µM was 47.9% and the remaining activity at 1 µM was found to be 12.1%.
The compound `NCCc1c[nH]c2ccc(F)cc12` [Compound A, 5-fluorotryptamine, reference compound] had a 1/IC50 in assay [1] of 5 ± 0.6 µM⁻¹. In assay [1] (setting [3]), the concentration for half-maximal inhibition (IC50) is 200 nM. Besides, in assay [2] (setting [8]), the remaining activity at 0.05 µM was 119%, the remaining activity at 0.1 µM is 111% and the remaining activity at 1 µM was determined as 41.5%. For the same compound, the “inhibition of LDL oxidation (in words)” value in assay [2] (irrespective of its concentration in the medium) is “poorly effective”.
As for “N-Propyl-3-(3-aminopropyl)-5-fluoro-[1H]-indole [Compound J]”, the 1/IC50 in assay [1] turned out to be 6 ± 1 µM⁻¹. Further, in assay [1] (setting [3]), the IC50 is 170 ± 30 nM. Moreover, the “LDL oxidation (%)” value in assay [2] (setting [9]) was found to be 79.9%; in assay [2] (setting [10]), 42.5%; in assay [2] (setting [11]) it was 5.6%.
The compound `CN(C)CCCc1c[nH]c2ccc(F)cc12` [Compound H, N,N-Dimethyl-3-(3-aminopropyl)-5-fluoro-[1H]indole tartrate] registered a 1/IC50 in assay [1] of 11 ± 8 µM⁻¹. Moreover, the IC50 in assay [1] (setting [3]) was 130 ± 90 nM. Moreover, the remaining activity at 0.05 µM in assay [2] (setting [5]) is 42.4%. The remaining activity at 0.1 µM in assay [2] (setting [6]) stood at 39.7%. For the same compound, the remaining activity at 1 µM in assay [2] (setting [7]) came to 8.4%.
The compound `CN(C)CCc1c[nH]c2ccc(F)cc12` [Compound D, N,N-Dimethyl-3-(2-aminoethyl)-5-fluoro-[1H]-indole] returned a 1/IC50 in assay [1] of 14 ± 7 µM⁻¹. In addition, in assay [1] (setting [3]), the 50% inhibitory concentration (IC50) turned out to be 90 ± 60 nM. Besides, in assay [2] (setting [8]), the remaining activity at 0.05 µM came out at 91.7%, the remaining activity at 0.1 µM worked out at 64.2% and the remaining activity at 1 µM worked out at 9.9%.
Regarding `NCCCc1c[nH]c2ccc(F)cc12` [Compound B, 3-(3-Aminopropyl)-5-fluoro-[1H]-indole], in assay [1], the 1/IC50 is 20 ± 4 µM⁻¹. Also, in assay [1] (setting [3]), the IC50 was found to be 50 ± 8 nM. Also, the remaining activity at 0.05 µM in assay [2] (setting [5]) was 26%. Also, the remaining activity at 0.1 µM in assay [2] (setting [6]) was found to be 19%. Besides, the remaining activity at 1 µM in assay [2] (setting [7]) is 9%. Also, the “inhibition of LDL oxidation (in words)” value in assay [2] (at low concentration) is reported as “excellent results”.
As to `NCCCCCCc1c[nH]c2ccc(F)cc12` [Compound L, 3-(6-Aminohexyl)-5-fluoro-[1H]-indole oxalate], the 1/IC50 in assay [1] worked out at 3.8 ± 0.2 µM⁻¹. Moreover, in assay [1] (setting [3]), the IC50 is 260 ± 10 nM. Besides, the remaining activity at 0.05 µM in assay [2] (setting [5]) was determined as 91.8%. The remaining activity at 0.1 µM in assay [2] (setting [6]) was 56.1%. Moreover, the remaining activity at 1 µM in assay [2] (setting [7]) is 18.2%.
`NCCCCc1c[nH]c2ccc(F)cc12` [Compound C, 3-(4-Aminobutyl)-5-fluoro-[1H]-indole oxalate] came in with a 1/IC50 in assay [1] of 72 ± 19 µM⁻¹. The 50% inhibitory concentration (IC50) was determined as 15 nM in assay [1] (setting [3]) and 15 ± 4 nM in assay [1] (setting [4]). Moreover, the remaining activity at 0.05 µM in assay [2] (setting [5]) was less than 18.5%. Further, in assay [2] (setting [6]), the remaining activity at 0.1 µM is less than 18.5%. The remaining activity at 1 µM in assay [2] (setting [7]) worked out at 6.1%. In addition, in assay [2] (at low concentration), the “inhibition of LDL oxidation (in words)” value is “powerful performance”.
In assay [1], `CCN(CC)CCc1c[nH]c2ccc(F)cc12` [Compound F, N,N-Diethyl-3-(2-aminoethyl)-5-fluoro-[1H]-indole] gave a 1/IC50 of 7 ± 3 µM⁻¹. In addition, the IC50 in assay [1] (setting [3]) is 160 ± 80 nM. In assay [2] (setting [8]), the remaining activity at 0.05 µM was determined as 80.1%, the remaining activity at 0.1 µM amounted to 60.2% and the remaining activity at 1 µM came to 8%.
In turn, “N-Methyl-3-(3-aminopropyl)-5-fluoro-[1H]-indole tartrate [Compound G]” came in with a 1/IC50 in assay [1] of 6 ± 2 µM⁻¹. The IC50 in assay [1] (setting [3]) amounted to 200 ± 200 nM. Besides, in assay [2] (at low concentration), the “inhibition of LDL oxidation (in words)” value is “excellent results”. In addition, the “LDL oxidation (%)” value in assay [2] (setting [9]) turned out to be 32.9%; in assay [2] (setting [10]) it was 24.8%; in assay [2] (setting [11]) it was 10.2%.

Source of the values: US20120122948A1, “3-ALKYL-5-FLUOROINDOLE DERIVATIVES AS MYELOPEROXIDASE INHIBITORS” (UNIVERSITE LIBRE DE BEUXELLES, priority 2009, published 2012).
